Results reported in patent US9758492B2, “IDO inhibitors” (Bristol-Myers Squibb Company, priority 2013, dated 2017).

Target: T1, Human IDO1 (Homo sapiens, UniProt P14902)
T1 construct: expressed in transfected cells; host or cells: HEK293
Assay: IDO Kynurenine Assay with Human IDO1/HEK293 Cells
Type: cell-based
Details: read-out: HEK human IDO-1 (IC50)
Experimental: IDO Kynurenine Assay with Human IDO1/HEK293 Cells
Human IDO1/HEK293 cells were seeded at 10,000 cells per 50 uL per well with RPMI/phenol red free media contains 10% FBS in a 384-well black wall clear bottom tissue culture plate (Matrix Technologies LLC) 125 nL of certain concentration of compound was then added to each well using ECHO liquid handling systems. The cells were incubated for 20 hours in 37° C. incubator with 5% CO2.
The compound treatments were stopped by adding Trichloroacetic Acid (Sigma-Aldrich) to a final concentration at 0.2%. The cell plate was further incubated at 50° C. for 30 minute. The equal volume supernatant (20 uL) and 0.2% (w/v) Ehrlich reagent (4-dimethylaminobenzaldehyde, Sigma-Aldrich) in glacial acetic acid were mixed in a new clear bottom 384-well plate. This plate was then incubated at room temperature for 30 minute. The absorbance at 490 nm was measured on Envision plate reader.
Compound IC50 values were calculated using the counts of 500 nM of a reference standard treatment as one hundred percent inhibition, and counts of no compound but DMSO treatment as zero percent inhibition.

T1 sequence (P14902 whole entry): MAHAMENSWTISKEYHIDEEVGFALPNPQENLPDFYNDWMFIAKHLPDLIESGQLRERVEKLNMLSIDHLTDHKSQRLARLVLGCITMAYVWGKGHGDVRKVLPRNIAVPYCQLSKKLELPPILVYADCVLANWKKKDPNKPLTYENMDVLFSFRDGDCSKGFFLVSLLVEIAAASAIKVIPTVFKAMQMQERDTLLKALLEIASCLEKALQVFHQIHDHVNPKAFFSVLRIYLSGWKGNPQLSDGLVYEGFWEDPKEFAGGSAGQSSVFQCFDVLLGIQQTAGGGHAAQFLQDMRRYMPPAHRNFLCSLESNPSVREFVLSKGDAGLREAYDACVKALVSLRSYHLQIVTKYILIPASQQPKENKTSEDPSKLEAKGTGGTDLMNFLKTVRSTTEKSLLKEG

Structure (SMILES)	IC50
CC(C)CN(CC(C)C)c1ccc(-c2ccc(Cl)cc2C(=O)O)cc1NC(=O)Nc1ccc(Cl)cc1F [Example 360, 4-Chloro-3′-(3-(4-chloro-2-fluorophenyl)ureido)-4′-(diisobutylamino)-[1,1′-biphenyl]-2-carboxylic acid]	20 nM
Cc1cc(NC(=O)Nc2cc(-c3cc(F)ccc3C(=O)O)c(F)cc2N(CC(C)C)[C@@H]2C[C@H]3CC[C@@H]2C3)no1 [Example 385]	200 nM
CC(C)CN(CC(C)C)c1ccc(-c2ccccc2-c2nnn[nH]2)cc1NC(=O)Nc1cncnc1 [Example 391]	280 nM
Cc1ccc(NC(=O)Nc2cc(-c3ccccc3-c3nnn[nH]3)ccc2N(CC(C)C)CC(C)C)cn1 [Example 395]	70 nM
CC(C)CN(c1ccc(-c2cc(F)ccc2C(=O)O)cc1NC(=O)Nc1cncnc1)C1CCCCC1 [Example 397]	10 nM
Cc1ccc(NC(=O)Nc2cc(-c3cc(F)ccc3C(=O)O)ccc2N(CC(C)C)C2CCCCC2)cn1 [Example 399]	20 nM
CC(C)CN(c1ccc(-c2cc(F)ccc2C(=O)O)cc1NC(=O)Nc1ccnnc1)C1CCCCC1 [Example 401]	1180 nM
CC(C)CN(c1cc(F)c(-c2cc(F)ccc2C(=O)O)cc1NC(=O)Nc1ccnnc1)C1CCCCC1 [Example 402]	4830 nM
CC(C)CN(c1cc(F)c(-c2cc(F)ccc2C(=O)O)cc1NC(=O)Nc1ccc2nccn2c1)C1CCCCC1 [Example 404]	2560 nM
CC(C)CN(c1ccc(-c2cc(F)ccc2C(=O)O)cc1NC(=O)Nc1ccc2ncncc2c1)C1CCCCC1 [Example 405]	1230 nM
CC(C)CN(c1ccc(-c2cc(F)ccc2C(=O)O)cc1NC(=O)Nc1ccc2nccn2c1)C1CCCCC1 [Example 407]	3110 nM
Cc1cc(NC(=O)Nc2cc(-c3cc(F)ccc3C(=O)O)ccc2N(CC(C)C)C2CCCCC2)no1 [Example 408]	10 nM
CC(C)CN(c1ccc(-c2cc(F)ccc2C(=O)O)cc1NC(=O)Nc1ccc2nn(C)cc2c1)C1CCCCC1 [Example 409]	110 nM
Cc1ccc(NC(=O)Nc2cc(-c3cc(F)ccc3C(=O)O)c(F)cc2N(CC(C)C)C2C[C@H]3CC[C@@H]2C3)cc1 (stereo partly drawn) [Example 410]	50 nM
CC(C)CN(c1cc(F)c(-c2cc(F)ccc2C(=O)O)cc1NC(=O)Nc1ccc(C#N)cc1)C1C[C@H]2CC[C@@H]1C2 (stereo partly drawn) [Example 411]	50 nM
CCOc1ccc(NC(=O)Nc2cc(-c3cc(F)ccc3C(=O)O)c(F)cc2N(CC(C)C)C2C[C@H]3CC[C@@H]2C3)cc1 (stereo partly drawn) [Example 412]	60 nM
Cc1ncc(NC(=O)Nc2cc(-c3cc(F)ccc3C(=O)O)c(F)cc2N(CC(C)C)C2C[C@H]3CC[C@@H]2C3)cn1 (stereo partly drawn) [Example 413]	1960 nM
Cc1ccc(NC(=O)Nc2cc(-c3cc(F)ccc3C(=O)O)ccc2N(CCCC(F)(F)F)C2CCCCC2)cc1 [Example 415]	130 nM
Cc1ccc(NC(=O)Nc2cc(-c3ccccc3C(=O)O)ccc2N(CCCC(F)(F)F)C2CCCCC2)cc1 [Example 416]	100 nM
COC(C)(C)CCN(c1ccc(-c2ccccc2C(=O)O)cc1NC(=O)Nc1ccc(C)cc1)C1CCCCC1 [Example 420]	5250 nM
COC(C)(C)CCN(c1ccc(-c2cc(F)ccc2C(=O)O)cc1NC(=O)Nc1ccc(C)cc1)C1CCCCC1 [Example 421]	3300 nM
COC(C)(C)CCN(CCCC(F)(F)F)c1ccc(-c2ccccc2C(=O)O)cc1NC(=O)Nc1ccc(C)cc1 [Example 422]	1480 nM
COC[C@H](C)N(CCCC(F)(F)F)c1ccc(-c2ccccc2-c2nnn[nH]2)cc1NC(=O)Nc1ccc(C)cc1 [Example 423]	20 nM
Cc1ccc(NC(=O)Nc2cc(-c3ccccc3C(=O)O)c(F)cc2N(CC(C)C)CC(C)C)cc1 [Example 425]	10 nM

More lines, in order of falling IC50, values ahead:

IC50	Structure (SMILES)
10 nM	CC(C)CN(c1cc(F)c(-c2cc(F)ccc2C(=O)O)cc1NC(=O)Nc1ccc(C(F)(F)F)cc1F)C1CCCCC1 [Example 392]
9.69 nM	CC(C)CN(CC(C)C)c1ccc(-c2ccccc2-c2nnn[nH]2)cc1NC(=O)Nc1cc(C(F)(F)F)no1 [Example 398]
8.85 nM	Cc1ccc(NC(=O)Nc2cc(-c3cc(F)ccc3C(=O)O)c(F)cc2N(CC(C)C)CC(C)C)cc1 [Example 426]
7.9 nM	Cc1ccc(NC(=O)Nc2cc(-c3cc(F)ccc3C(=O)O)c(F)cc2N(CC(C)C)C2CCCCC2)cn1 [Example 394]
7.59 nM	CC(C)CN(c1ccc(-c2cc(F)ccc2C(=O)O)cc1NC(=O)Nc1ccc2nccnc2c1)C1CCCCC1 [Example 406]
6.07 nM	Cc1cc(NC(=O)Nc2cc(-c3ccccc3-c3nnn[nH]3)ccc2N(CC(C)C)CC(C)C)on1 [Example 396]
5.55 nM	Cc1ccc(NC(=O)Nc2cc(-c3ccccc3-c3nnn[nH]3)c(F)cc2N(CC(C)C)CC(C)C)cc1 [Example 429]
5.35 nM	CC(C)CN(c1ccc(-c2cc(F)ccc2C(=O)O)cc1NC(=O)Nc1cc(C(F)(F)F)no1)C1CCCCC1 [Example 400]
5.27 nM	[2H]C([2H])(C(C)C)N(c1ccc(-c2ccccc2-c2nnn[nH]2)cc1NC(=O)Nc1ccc(C)cc1)C([2H])([2H])C(C)C [Example 424]
5.08 nM	C=C(C)CN(CCCC(F)(F)F)c1ccc(-c2cc(F)ccc2C(=O)O)cc1NC(=O)Nc1ccc(C)cc1 [Example 419]
4.63 nM	C=C(C)CN(CCCC(F)(F)F)c1ccc(-c2ccccc2C(=O)O)cc1NC(=O)Nc1ccc(C)cc1 [Example 418]
3.76 nM	CC(C)CN(c1c(F)cc(-c2cc(F)ccc2C(=O)O)cc1NC(=O)Nc1ccccc1F)C1CCCCC1 [Example 431]
3.7 nM	CC(C)CN(c1c(F)cc(-c2cc(F)ccc2C(=O)O)cc1NC(=O)Nc1ccc(Cl)cc1F)C1CCCCC1 [Example 434]
3 nM	Cc1ccc(NC(=O)Nc2cc(-c3cc(F)ccc3C(=O)O)cc(F)c2N(CC(C)C)C2CCCCC2)cc1 [Example 435]
2.32 nM	CC(C)CN(c1cc(F)c(-c2cc(F)ccc2C(=O)O)cc1NC(=O)Nc1ccc2nccnc2c1)C1CCCCC1 [Example 403]
2.15 nM	Cc1cc(NC(=O)Nc2cc(-c3cc(F)ccc3C(=O)O)c(F)cc2N(CC(C)C)C2CCCCC2)on1 [Example 376]
2.07 nM	CC(C)CN(c1cc(F)c(-c2cc(F)ccc2C(=O)O)cc1NC(=O)Nc1cc(C(F)(F)F)no1)C1CCCCC1 [Example 393]
1.97 nM	Cc1ccc(NC(=O)Nc2cc(-c3ccccc3-c3nnn[nH]3)cc(F)c2N(CC(C)C)C2CCCCC2)cc1 [Example 433]
1.89 nM	C=C(C)CN(CCCC(F)(F)F)c1ccc(-c2ccccc2-c2nnn[nH]2)cc1NC(=O)Nc1ccc(C)cc1 [Example 417]
1.84 nM	CC(C)CN(CC(C)C)c1cc(F)c(-c2cc(F)ccc2C(=O)O)cc1NC(=O)Nc1ccc(Cl)cc1F [Example 428]
1.82 nM	CC(C)CN(c1c(F)cc(-c2ccccc2C(=O)O)cc1NC(=O)Nc1ccccc1F)C1CCCCC1 [Example 432]
1.68 nM	Cc1cc(NC(=O)Nc2cc(-c3ccccc3C(=O)O)ccc2N(CC(C)C)C2CCCCC2)on1 [Example 377]
1.61 nM	CC(C)CN(CC(C)C)c1cc(F)c(-c2ccccc2C(=O)O)cc1NC(=O)Nc1ccc(Cl)cc1F [Example 427]
0.606 nM	CC(C)CN(c1c(F)cc(-c2ccccc2-c2nnn[nH]2)cc1NC(=O)Nc1ccccc1F)C1CCCCC1 [Example 430]
